Experimental data: patent US10533002B2, “Thiophene- or furan-substituted isothiazoline compounds as pesticides” (BOEHRINGER INGELHEIM ANIMAL HEATLH USA INC., priority 2013, dated 2020)

How the values were obtained:
[1] = tested on: Boll Weevil (Anthonomus grandis); experiment: Boll weevil microtiter diet test (B.8); assay type: in vivo; details: 120 h, egg and larval mortality, sprayed insect diet, 5 days, read-out: mortality in comparison with untreated controls
Protocol: B.8 Boll Weevil (Anthonomus grandis)
For evaluating control of boll weevil (Anthonomus grandis) the test unit consisted of 96-well-microtiter plates containing an insect diet and 5-10 A. grandis eggs.
(§1) The compounds were formulated using a solution containing 75% v/v water and 25% v/v DMSO. Different concentrations of formulated compounds were sprayed onto the insect diet at 5 μl, using a custom built micro atomizer, at two replications.
After application, microtiter plates were incubated at about 25±1° C. and about 75±5% relative humidity for 5 days. Egg and larval mortality was then visually assessed.

[2] = tested on: Tobacco Budworm (Heliothis virescens); experiment: Tobacco budworm microtiter diet test (B.7); assay type: in vivo; details: 120 h, egg and larval mortality, sprayed insect diet, 5 days, read-out: mortality in comparison with untreated controls
Protocol: B.7 Tobacco Budworm (Heliothis virescens)
as §1, with “For evaluating control of tobacco budworm (Heliothis virescens) the test unit consisted of 96-well-microtiter plates containing an insect diet and 15-25 H. virescens eggs. The” for “The”, “at 10” for “at 5”
After application, microtiter plates were incubated at about 28±1° C. and about 80±5% relative humidity for 5 days. Egg and larval mortality was then visually assessed.

[3] = tested on: Mediterranean Fruitfly (Ceratitis capitata); experiment: Mediterranean fruitfly microtiter diet test (B.3); details: 120 h, read-out: mortality in comparison with untreated controls
[4] = tested on: Green Peach Aphid (Myzus persicae); experiment: Green peach aphid artificial diet systemic test (B.2); assay type: in vivo; details: 72 h, adult aphids on treated artificial diet, 3 days, read-out: mortality in comparison with untreated controls
From the text: B.2 Green Peach Aphid (Myzus persicae)
For evaluating control of green peach aphid (Myzus persicae) through systemic means the test unit consisted of 96-well-microtiter plates containing liquid artificial diet under an artificial membrane.
The compounds were formulated using a solution containing 75% v/v water and 25% v/v DMSO. Different concentrations of formulated compounds were pipetted into the aphid diet, using a custom built pipetter, at two replications.
After application, 5-8 adult aphids were placed on the artificial membrane inside the microtiter plate wells. The aphids were then allowed to suck on the treated aphid diet and incubated at about 23±1° C. and about 50±5% relative humidity for 3 days. Aphid mortality and fecundity was then visually assessed.

[5] = tested on: Vetch Aphid (Megoura viciae); experiment: Vetch aphid broad bean leaf disk test (B.6); assay type: in vivo; details: foliar, 120 h, adult aphids on sprayed broad bean leaf disks, 5 days, read-out: mortality in comparison with untreated controls
Protocol: B.6 Vetch Aphid (Megoura viciae)
For evaluating control of vetch aphid (Megoura viciae) through contact or systemic means the test unit consisted of 24-well-microtiter plates containing broad bean leaf disks.
The compounds were formulated using a solution containing 75% v/v water and 25% v/v DMSO. Different concentrations of formulated compounds were sprayed onto the leaf disks at 2.5 μl, using a custom built micro atomizer, at two replications. After application, the leaf disks were air-dried and 5-8 adult aphids placed on the leaf disks inside the microtiter plate wells. The aphids were then allowed to suck on the treated leaf disks and incubated at about 23±1° C. and about 50±5% relative humidity for 5 days. Aphid mortality and fecundity was then visually assessed.

[6] = tested on: Southern Armyworm (Spodoptera eridania); experiment: Southern armyworm lima bean foliar spray test (B.5); assay type: in vivo; details: 96 h, larvae on sprayed lima bean plants, 4 days after treatment, read-out: mortality in comparison with untreated controls
Protocol: B.5 Southern Armyworm (Spodoptera eridania)
The active compounds were formulated by a Tecan liquid handler in 100% cyclohexanone as a 10,000 ppm solution supplied in tubes. The 10,000 ppm solution was serially diluted in 100% cyclohexanone to make interim solutions. These served as stock solutions for which final dilutions were made by the Tecan in 50% acetone:50% water (v/v) into 5 or 10 ml glass vials. A nonionic surfactant (Kinetic®) was included in the solution at a volume of 0.01% (v/v). The vials were then inserted into an automated electrostatic sprayer equipped with an atomizing nozzle for application to plants/insects.
Lima bean plants (variety Sieva) were grown 2 plants to a pot and selected for treatment at the 1st true leaf stage. Test solutions were sprayed onto the foliage by an automated electrostatic plant sprayer equipped with an atomizing spray nozzle. The plants were dried in the sprayer fume hood and then removed from the sprayer. Each pot was placed into perforated plastic bags with a zip closure. About 10 to 11 armyworm larvae were placed into the bag and the bags zipped closed. […] Mortality and reduced feeding were assessed 4 days after treatment, compared to untreated control plants.

[7] = tested on: Diamond Back Moth (Plutella xylostella); experiment: Diamond back moth leaf-dip test (B.1); assay type: in vivo; details: cabbage leaves dipped, 3rd instar larvae, 72 hours after treatment, read-out: mortality in comparison with untreated controls
Protocol: B.1 Diamond Back Moth (Plutella xylostella)
The active compound was dissolved at the desired concentration in a mixture of 1:1 (vol:vol) distilled water:aceteone. Surfactant (Kinetic HV) was added at a rate of 0.01% (vol/vol). The test solution was prepared at the day of use.
Leaves of cabbage were dipped in test solution and air-dried. Treated leaves were placed in petri dishes lined with moist filter paper and inoculated with ten 3rd instar larvae. Mortality was recorded 72 hours after treatment. Feeding damages were also recorded using a scale of 0-100%.

O=C(O)c1sc(C2=NSC(c3cc(Cl)c(F)c(Cl)c3)(C(F)(F)F)C2)cc1C(F)(F)F (stereo not shown) [Compound 1-9, 5-[5-(3,5-Dichloro-4-fluoro-phenyl)-5-(trifluoromethyl)-4H-isothiazol-3-yl]-3-(trifluoromethyl)-thiophene-2-carboxylic acid]
≥ 75%: mortality at 2500 ppm [1] | mortality at 2500 ppm [2]

O=C(NCc1ncccn1)c1sc(C2=NSC(c3cc(Cl)c(F)c(Cl)c3)(C(F)(F)F)C2)cc1C(F)(F)F (stereo not shown) [Compound 1-12, 5-[5-(3,5-Dichloro-4-fluoro-phenyl)-5-(trifluoromethyl)-4H-isothiazol-3-yl]-N-(pyrimidin-2-ylmethyl)-3-(trifluoromethyl)thiophene-2-carboxamide]
≥ 75%: mortality at 2500 ppm [3] | mortality at 2500 ppm [4] | mortality at 2500 ppm [1] | mortality at 2500 ppm [5] | mortality at 2500 ppm [2]

Cc1cc(C2=NSC(c3cc(Cl)c(Cl)c(Cl)c3)(C(F)(F)F)C2)sc1C(=O)OC(C)(C)C (stereo not shown) [Compound 1-1, tert-Butyl 3-methyl-5-[5-(3,4,5-trichlorophenyl)-5-(trifluoromethyl)-4H-isothiazol-3-yl]thiophene-2-carboxylate]
≥ 75%: mortality at 300 ppm [6]

Cc1cc(C2=NSC(c3cc(Cl)c(Cl)c(Cl)c3)(C(F)(F)F)C2)sc1C(=O)NCC(F)(F)F (stereo not shown) [Compound 1-7, 3-Methyl-5-[5-(3,4,5-trichlorophenyl)-5-(trifluoromethyl)-4H-isothiazol-3-yl]-N-(2,2,2-trifluoroethyl)thiophene-2-carboxamide]
≥ 75%: mortality at 2500 ppm [3] | mortality at 500 ppm [7] | mortality at 2500 ppm [1] | mortality at 2500 ppm [5] | mortality at 2500 ppm [2]
